The source of these data is PMC6769468, “Endogenous Neuropeptide Nocistatin Is a Direct Agonist of Acid-Sensing Ion Channels (ASIC1, ASIC2 and ASIC3)” (Biomolecules, 2019).

Assay [1] relates to delayed rectifying K^+, voltage-gated Na^+, and L-type Ca^2+ currents. The arrangement: method as in PMID 29477572. To be noted: ref [19]; cited from earlier work.
The test system of the next assay is ASIC3. Conditions: cited from earlier work; for Effect on ASIC3: lipids, ref [21]. An excerpt: Acid-sensing ion channels (ASICs) are members of ligand-gated cation channels and belong to the degenerin/epithelial Na^+ channel superfamily. Four genes (ACCN1–ACCN4) express six subunits (ASIC1a, ASIC1b, ASIC2a, ASIC2b, ASIC3, and ASIC4), four of which can form functional homomeric channels (ASIC1a, ASIC1b, ASIC2a, and ASIC3). ASIC channels are widely expressed throughout the neurons of central and peripheral nervous systems, where they play a role in neurotransmission, synaptic plasticity, and learning, and in ischemia, neuronal cell death.

Assay [2] relates to ASIC channels. To be noted: ref [14],[18],[19]; cited from earlier work. An excerpt:
All previously known activators of ASIC channels, both exogenous and endogenous, cause a persistent, slowly desensitized current that was different in kinetic parameters from currents induced by pH drops. […] Both agonists show rapid kinetics of desensitization of the currents and have a high Hill coefficient of activation. The identical efficiency with which the toxin Mamb-2 inhibits the nocistatin- and proton ...

A further assay concerns rat ASIC3 channels. The arrangement: method as in 2 sources, ref [20] = [20]; PMID 29277899; doi:10.1111/bph.14134; 20. Osmakov D.I. Koshelev S.G. Andreev Y.A. Dubinnyi M.A. Kublitski V.S. Efremov R.G. Sobolevsky A.I. Kozlov S.A. Proton-independent activation of acid-sensing ion channel 3 by an alkaloid, lindoldham ||| ref [22] = [22]; PMID 28955199; doi:10.3389/fnmol.2017.00282; 22. Osmakov D.I. Koshelev S.G. Andreev Y.A. Kozlov S.A. Endogenous Isoquinoline Alkaloids Agonists of Acid-Sensing Ion Channel Type 3 Front. Mol. Neurosci. 2017 10 282 10.3389/fnmol.2017.00282 2895519. To be noted: cited from earlier work; for Effect on rat ASIC3: physiological pH, prevents steady-state desensitization, ref [22].

In a further assay the test system is human ASIC3 channels. The arrangement: method as in 2 sources, ref [20] = [20]; PMID 29277899; doi:10.1111/bph.14134; 20. Osmakov D.I. Koshelev S.G. Andreev Y.A. Dubinnyi M.A. Kublitski V.S. Efremov R.G. Sobolevsky A.I. Kozlov S.A. Proton-independent activation of acid-sensing ion channel 3 by an alkaloid, lindoldham ||| ref [22] = [22]; PMID 28955199; doi:10.3389/fnmol.2017.00282; 22. Osmakov D.I. Koshelev S.G. Andreev Y.A. Kozlov S.A. Endogenous Isoquinoline Alkaloids Agonists of Acid-Sensing Ion Channel Type 3 Front. Mol. Neurosci. 2017 10 282 10.3389/fnmol.2017.00282 2895519. To be noted: cited from earlier work; for Effect on human ASIC3: physiological pH, prevents steady-state desensitization, ref [22].

The test system of a further assay is ASIC1a. Kind of assay: Response of ASIC1a to nociceptin and orphanin. To be noted: applied under the same conditions as nocistatin, pH 7.4, pH drop to 5.5; n = 4. The class given is cell-based, rat. The method, then: Oocytes expressed rASIC1a, rASIC1b, rASIC2a, and rASIC3 homomeric channels were prepared as described. Injected oocytes were kept for two–three days at 19 °C and then for up to seven days at 15 °C in ND-96 medium supplemented with gentamycin (50 μg·mL^−1) and containing (in mM): 96 NaCl, 2 KCl, 1.8 CaCl2, 1 MgCl2, and 10 HEPES titrated to pH 7.4 with NaOH. Electrophysiological recordings were performed using the GeneClamp500 amplifier (Axon Instruments, Inverurie, UK) at a holding potential of -50 mV. The data were filtered at 20 Hz and digitized at 100 Hz using the L780 AD converter (L-Card, Moscow, Russia). Microelectrodes were filled with 3 M KCl. The external bath solution was ND-96 with pH adjusted to 7.4/7.8 (10 mM HEPES) /8.5 (10 mM Tris). Nocistatin containing solutions were freshly prepared and buffered each experimental day in ND-96 bath solution (pH 7.4/7.8/8.5). Proton-activated currents through ASIC channels were elicited by application of ND-96, in which 10 mM of HEPES was substituted with 10 mM MES at pH 5.5/ 10 mM acetic acid at pH 4.5. The whole-cell recording was performed if a response to the control pH stimulus was stable in at least two replicates. […]
Figure S1. […] Currents were measured at a holding external bath pH 7.4 and were induced by a pH drop to 5.5. […]

Assay [3] has as its system ASIC channels. Conditions: Supplementary Figure S1 and ref [23]; cited from earlier work. An excerpt:
The nocistatin in mammalian is expressed as a precursor protein coding three neuropeptides (nocistatin, nociceptin, and Orphanin FQ2). […] Nocistatin is well represented in different parts of the brain and spinal cord. […] Nocistatin was studied in animal models as a prospective molecule together with opi ...

The mark [4] stands for this setting: broad range of pH, including pH > 7.4, ref [20].

Turning to `Cc1nc(NC(=N)N)nc2ccccc12` [GMQ, 2-guanidine-4-methylquinazoline], the “Modulation of K^+, Na^+ and Ca^2+ currents” value in assay [1] is “modulating delayed rectifying K^+, voltage-gated Na^+, and L-type Ca^2+ currents”. The “Action on ASIC3” value in the assay on ASIC3 (pH < 7.4, ref [18]) is “acting on ASIC3 at pH < 7.4 through a nonproton sensor”. For the same molecule, the “Shape of current caused by activator” value with ASIC channels [2] was “slowly developing, non-desensitizing and non-selective cation current”.

In the case of `CCCCC/C=C\C/C=C\C/C=C\C/C=C\CCCC(=O)O` [arachidonic acid], the “Effect on ASIC3” value in the assay on ASIC3 is listed as “evoking a constitutive depolarizing ASIC3-mediated current”.

For the molecule `COc1cc2c(cc1O)[C@H](Cc1ccc(Oc3cc(C[C@@H]4NCCc5cc(OC)c(O)cc54)ccc3O)cc1)NCC2` [lindoldhamine], the “Action on rat ASIC3” value in the assay on rat ASIC3 channels (setting [4]) was “agonist and positive allosteric modulator”. The “Action on human ASIC3” value in the assay on human ASIC3 channels (setting [4]) was “agonist and positive allosteric modulator”.

As to `COc1ccc(C[C@H]2c3cc(O)c(OC)cc3CCN2C)cc1O` [reticuline], the “Effect on rat ASIC3” value with rat ASIC3 channels is “activating human and rat ASIC3 channels at physiological pH and preventing a steady-state desensitization of the channels”. For the same molecule, the “Effect on human ASIC3” value with human ASIC3 channels was “activating human and rat ASIC3 channels at physiological pH and preventing a steady-state desensitization of the channels”.

Consider `Oc1ccc(CC2NCCc3cc(O)c(O)cc32)cc1O` (stereo not drawn) [tetrahydropapaveroline (THP), tetrahydropapaveroline], for which, in the assay on rat ASIC3 channels, the “Effect on rat ASIC3” value is “activating human and rat ASIC3 channels at physiological pH and preventing a steady-state desensitization of the channels”. Further, the “Effect on human ASIC3” value in the assay with human ASIC3 channels is “activating human and rat ASIC3 channels at physiological pH and preventing a steady-state desensitization of the channels”.

For “lysophosphatidylcholine [lysophosphatidylcholine (LPC)]”, the “Effect on ASIC3” value with ASIC3 was “evoking a constitutive depolarizing ASIC3-mediated current”.

“nociceptin: neuropeptide nociceptin (NC) [PNOC_RAT 135–151] (FGGFTGARKSARKLANQ; Nociceptin; UniProt Q62923 135-151, looked up, fragment)”: the “Effect on ASIC1a” value in the assay on ASIC1a is “no effect (neither activating nor inhibitory)”. In the assay on ASIC channels [3], the “Activating effects on ASIC channels” value was “do not have activating effects on ASIC channels”.

In the case of “orphanin: neuropeptide orphanin (Orf) [PNOC_RAT 154–170] (FSEFMRQYLVLSMQSSQ; Orphanin FQ2; UniProt Q62923 154-170, looked up, fragment)”, the “Effect on ASIC1a” value in the assay with ASIC1a was “no effect (neither activating nor inhibitory)”. Also, the “Activating effects on ASIC channels” value in the assay with ASIC channels [3] is reported as “do not have activating effects on ASIC channels”.
